Experimental data taken from publication PMC12396409, “Screening and hit evaluation of a microbial metabolite library against the pathogenic Plasmodium falciparum and Toxoplasma gondii parasites” (International Journal for Parasitology: Drugs and Drug …, 2025).
Like-named read-outs stand apart in the source and are kept apart here.

Legend:
[1] = test system: P. falciparum 3D7 parasites; assay: P. falciparum growth inhibition assay, 1-cycle (72 h treatment), SYBR DNA staining (library screen at 2 μg/mL and dose-response); assay type: cell-based, Plasmodium falciparum
[2] = test system: P. falciparum 3D7 parasites; assay: P. falciparum growth inhibition assay, 2-cycle (120 h treatment), delayed-death screen and dose-response; assay type: cell-based, Plasmodium falciparum
[3] = test system: T. gondii RH strain (RH-Tub-eYFP) tachyzoites; assay: microbe, parasite or virus in culture; assay type: cell-based, Toxoplasma gondii; conditions: 72 h; for percent parasite growth at 2 µg/mL: Toxoplasma gondii
[4] = P. falciparum 3D7, 72 h, parasite screen at 2 μg/mL, % growth, replicate 1
[5] = P. falciparum 3D7, 72 h, parasite screen at 2 μg/mL, % growth, replicate 2
[6] = P. falciparum 3D7, 120 h, parasite screen at 2 μg/mL, % growth, replicate 1
[7] = P. falciparum 3D7, 120 h, parasite screen at 2 μg/mL, % growth, replicate 2
[8] = T. gondii, parasite screen at 2 μg/mL, % growth, replicate 1
[9] = T. gondii, parasite screen at 2 μg/mL, % growth, replicate 2
[10] = Plasmodium falciparum, 3D7, P. falciparum, 72 h, screen at 2 μg/mL, replicate 1, read-out: Pf_72h_%Growth_Rep1
[11] = Plasmodium falciparum, 3D7, P. falciparum, 72 h, screen at 2 μg/mL, replicate 2, read-out: Pf_72h_%Growth_Rep2
[12] = Plasmodium falciparum, 3D7, P. falciparum, 120 h, screen at 2 μg/mL, replicate 1, read-out: Pf_120h_%Growth_Rep1
[13] = Plasmodium falciparum, 3D7, P. falciparum, 120 h, screen at 2 μg/mL, replicate 2, read-out: Pf_120h_%Growth_Rep2
[14] = T. gondii, screen at 2 μg/mL, replicate 1, read-out: Tg_72h_%Growth_Rep1
[15] = T. gondii, screen at 2 μg/mL, replicate 2, read-out: Tg_72h_%Growth_Rep2
[16] = library screen at 2 μg/mL, 72 h, % growth, replicate 1
[17] = library screen at 2 μg/mL, 72 h, % growth, replicate 2
[18] = library screen at 2 μg/mL, 120 h, % growth, replicate 1
[19] = library screen at 2 μg/mL, 120 h, % growth, replicate 2
[20] = library screen at 2 μg/mL, % growth, replicate 1
[21] = library screen at 2 μg/mL, % growth, replicate 2
[22] = P. falciparum, 72 h, screen at 2 μg/mL, replicate 1
[23] = P. falciparum, 72 h, screen at 2 μg/mL, replicate 2
[24] = P. falciparum, 120 h, screen at 2 μg/mL, replicate 1
[25] = P. falciparum, 120 h, screen at 2 μg/mL, replicate 2
[26] = T. gondii, screen at 2 μg/mL, replicate 1
[27] = T. gondii, screen at 2 μg/mL, replicate 2
[28] = P. falciparum 3D7, 72 h, library screen at 2 μg/mL, % growth, replicate 1
[29] = P. falciparum 3D7, 72 h, library screen at 2 μg/mL, % growth, replicate 2
[30] = P. falciparum 3D7, 120 h, library screen at 2 μg/mL, % growth, replicate 1
[31] = P. falciparum 3D7, 120 h, library screen at 2 μg/mL, % growth, replicate 2
[32] = T. gondii RH, library screen at 2 μg/mL, % growth, replicate 1
[33] = T. gondii RH, library screen at 2 μg/mL, % growth, replicate 2

CNC1CC2OC(C)(C1OC)n1c3ccccc3c3c4c(c5c6ccccc6n2c5c31)C(=O)NC4=O (stereo not shown) [BIA-O1137]
Pf_72h_%Growth_Rep1 [1, 4]: 5.55% | Pf_72h_%Growth_Rep2 [1, 5]: 3.48% | Pf_120h_%Growth_Rep1 [2, 6]: 5.90% | Pf_120h_%Growth_Rep2 [2, 7]: 15.39% | Tg_72h_%Growth_Rep1 [3, 8]: 57.26% | Tg_72h_%Growth_Rep2 [3, 9]: 18.54%

CC(=O)c1c(O)cc(O)cc1O [BIA-M1378]
Pf_72h_%Growth_Rep1 [1, 4]: 82.52% | Pf_72h_%Growth_Rep2 [1, 5]: 84.34% | Pf_120h_%Growth_Rep1 [2, 6]: 82.35% | Pf_120h_%Growth_Rep2 [2, 7]: 134.53% | Tg_72h_%Growth_Rep1 [3, 8]: 125.07% | Tg_72h_%Growth_Rep2 [3, 9]: 89.41%

CC[C@H]1OC(=O)C[C@@H](O)[C@H](C)[C@@H](O[C@@H]2O[C@H](C)[C@@H](O)[C@H](N(C)C)[C@H]2O)[C@@H](CCN2C[C@H](C)C[C@H](C)C2)C[C@@H](C)C(=O)/C=C/C(C)=C/[C@@H]1CO[C@@H]1O[C@H](C)[C@@H](O)[C@@H](OC)[C@H]1OC [Tilmicosin, reference compound]
activity at 2 µg/mL ([1]; Plasmodium falciparum, 3D7; P. falciparum, 2 μg/mL, 72 h; read-out: 1) Growth (%) at 72 h): 43.1% | activity at 2 µg/mL [1, 10]: 45% | activity at 2 µg/mL [1, 11]: 41.2% | 3) Fold change (72 h/120 h) ([2]; P. falciparum, growth at 72 h / growth at 120 h, 2 μg/mL): 3.0 | activity at 2 µg/mL ([2]; Plasmodium falciparum, 3D7; P. falciparum, 2 μg/mL, 120 h; read-out: 2) Growth (%) at 120 h): 14.5% | activity at 2 µg/mL [2, 12]: 22.4% | activity at 2 µg/mL [2, 13]: 6.63% | percent parasite growth at 2 µg/mL [3, 14]: 48.2% | percent parasite growth at 2 µg/mL [3, 15]: 37.2%

CC[C@H](C)[C@H]1O[C@]2(C=C[C@@H]1C)C[C@@H]1C[C@@H](C/C=C(\C)[C@@H](O[C@H]3C[C@H](OC)[C@@H](O[C@H]4C[C@H](OC)[C@@H](O)[C@H](C)O4)[C@H](C)O3)[C@@H](C)/C=C/C=C3\CO[C@@H]4[C@H](O)C(C)=C[C@H](C(=O)O1)[C@]34O)O2 [Avermectin B1a, epi-]
Pf_72h_%Growth_Rep1 [1, 16]: 8.49% | Pf_72h_%Growth_Rep2 [1, 17]: 20.73% | Pf_120h_%Growth_Rep1 [2, 18]: 5.66% | Pf_120h_%Growth_Rep2 [2, 19]: -2.43% | Tg_72h_%Growth_Rep1 [3, 20]: 34.09% | Tg_72h_%Growth_Rep2 [3, 21]: 40.50%

CC1=CCC2CC(CC3(CCC(C)C(C)O3)O2)OC(=O)C2C=C(C)C(=NO)C3OCC(=CC=CC(C)C1)C23O (stereo not shown) [BIA-M1531]
Pf_72h_%Growth_Rep1 [1, 4]: 53.63% | Pf_72h_%Growth_Rep2 [1, 5]: 28.47% | Pf_120h_%Growth_Rep1 [2, 6]: 36.91% | Pf_120h_%Growth_Rep2 [2, 7]: 51.60% | Tg_72h_%Growth_Rep1 [3, 8]: 75.89% | Tg_72h_%Growth_Rep2 [3, 9]: 79.64%

CCOCCO[C@@H]1CC[C@@H](C[C@@H](C)[C@@H]2CC(=O)[C@H](C)/C=C(\C)[C@@H](O)[C@@H](OC)C(=O)[C@H](C)C[C@H](C)/C=C/C=C/C=C(\C)[C@@H](OC)C[C@@H]3CC[C@@H](C)[C@@](O)(O3)C(=O)C(=O)N3CCCC[C@H]3C(=O)O2)C[C@H]1OC [Umirolimus, reference compound]
Mean ([1]; P. falciparum, 72 h, 2 μg/mL, mean of both replicates, growth (% of control)): 22.90 | Pf_72h_%Growth_Rep1 [1, 22]: 19.04% | Pf_72h_%Growth_Rep2 [1, 23]: 26.75% | Pf_120h_%Growth_Rep1 [2, 24]: 49.79% | Pf_120h_%Growth_Rep2 [2, 25]: 32.58% | Tg_72h_%Growth_Rep1 [3, 26]: 81.37% | Tg_72h_%Growth_Rep2 [3, 27]: 91.74%

CC1CCCCCC(=O)c2c(O)cc(O)cc2CC(=O)O1 (stereo not shown) [Curvularin]
activity at 2 µg/mL [1, 10]: 94% | activity at 2 µg/mL [1, 11]: 47.8% | activity at 2 µg/mL [2, 12]: 93.3% | activity at 2 µg/mL [2, 13]: 122% | percent parasite growth at 2 µg/mL [3, 14]: 143% | percent parasite growth at 2 µg/mL [3, 15]: 80.4%

O=c1cc(O)c2nccc3c4ccccc4n1c23 [BIA-H1963]
Pf_72h_%Growth_Rep1 [1, 28]: 88.88% | Pf_72h_%Growth_Rep2 [1, 29]: 124.49% | Pf_120h_%Growth_Rep1 [2, 30]: 105.89% | Pf_120h_%Growth_Rep2 [2, 31]: 107.63% | Tg_72h_%Growth_Rep1 [3, 32]: 127.63% | Tg_72h_%Growth_Rep2 [3, 33]: 85.33%

CC(=O)O.CC(=O)O.CC[C@H](C)C[C@H](C)CCCCCCCCC(=O)N[C@H]1C[C@@H](O)[C@@H](NCCN)NC(=O)[C@@H]2[C@@H](O)CCN2C(=O)[C@H]([C@H](O)CCN)NC(=O)[C@H]([C@H](O)[C@@H](O)c2ccc(O)cc2)NC(=O)[C@@H]2C[C@@H](O)CN2C(=O)[C@H]([C@@H](C)O)NC1=O [Caspofungin acetate]
Pf_72h_%Growth_Rep1 [1, 22]: 37.83% | Pf_72h_%Growth_Rep2 [1, 23]: 84.89% | Pf_120h_%Growth_Rep1 [2, 24]: 148.27% | Pf_120h_%Growth_Rep2 [2, 25]: 78.66% | Tg_72h_%Growth_Rep1 [3, 26]: 95.80% | Tg_72h_%Growth_Rep2 [3, 27]: 93.96%

CCOC(=O)c1c2ccocc-2oc1=O [BIA-K1981]
Pf_72h_%Growth_Rep1 [1, 28]: 72.42% | Pf_72h_%Growth_Rep2 [1, 29]: 90.55% | Pf_120h_%Growth_Rep1 [2, 30]: 169.06% | Pf_120h_%Growth_Rep2 [2, 31]: 89.57% | Tg_72h_%Growth_Rep1 [3, 32]: 89.77% | Tg_72h_%Growth_Rep2 [3, 33]: 96.78%

CC(C)=C[C@H]1C[C@H](C)[C@]2(CC[C@]3(C)C[C@@H]4C(C)=CC(=O)[C@H]4/C(C=O)=C\C[C@H]32)O1 [Anhydroepiophiobolin A]
Pf_72h_%Growth_Rep1 [1, 16]: 2.50% | Pf_72h_%Growth_Rep2 [1, 17]: 3.83% | Pf_120h_%Growth_Rep1 [2, 18]: -5.12% | Pf_120h_%Growth_Rep2 [2, 19]: 6.51% | Tg_72h_%Growth_Rep1 [3, 20]: 120.33% | Tg_72h_%Growth_Rep2 [3, 21]: 104.77%

Cc1cc(O)c2c3c4c(cc(O)c13)C(C)(C)C(=O)c1c(O)cc(O)c(c1-4)C2=O [Resistomycin]
activity at 2 µg/mL ([1]; Plasmodium falciparum, 3D7, 72 h, P. falciparum, 72 h, parasite screen 2 μg/mL, % growth, replicate 1, read-out: Pf_72h_%Growth_Rep1): 82% | activity at 2 µg/mL ([1]; Plasmodium falciparum, 3D7, 72 h, P. falciparum, 72 h, parasite screen 2 μg/mL, % growth, replicate 2, read-out: Pf_72h_%Growth_Rep2): 102% | activity at 2 µg/mL ([2]; Plasmodium falciparum, 3D7, 120 h, P. falciparum, 120 h, parasite screen 2 μg/mL, % growth, replicate 1, read-out: Pf_120h_%Growth_Rep1): 78.2% | activity at 2 µg/mL ([2]; Plasmodium falciparum, 3D7, 120 h, P. falciparum, 120 h, parasite screen 2 μg/mL, % growth, replicate 2, read-out: Pf_120h_%Growth_Rep2): 130% | percent parasite growth at 2 µg/mL ([3]; T. gondii, parasite screen 2 μg/mL, % growth, replicate 1, read-out: Tg_72h_%Growth_Rep1): 221% | percent parasite growth at 2 µg/mL ([3]; T. gondii, parasite screen 2 μg/mL, % growth, replicate 2, read-out: Tg_72h_%Growth_Rep2): 125%

C=C1NC(=O)c2nc(oc2C)C(=C)NC(=O)[C@H](C(C)(C)O)NC(=O)C(=C)NC(=O)c2nc(oc2C)/C(=C/C)NC(=O)[C@H]([C@@H](C)O)NC(=O)c2csc(n2)-c2ccc(C(N)=O)nc2-c2coc(n2)C(=C)NC1=O [Berninamycin D]
Pf_72h_%Growth_Rep1 [1, 16]: 102.21% | Pf_72h_%Growth_Rep2 [1, 17]: 89.93% | Pf_120h_%Growth_Rep1 [2, 18]: 147.66% | Pf_120h_%Growth_Rep2 [2, 19]: 98.89% | Tg_72h_%Growth_Rep1 [3, 20]: 81.74% | Tg_72h_%Growth_Rep2 [3, 21]: 94.54%

C=CC(C)(C)c1[nH]c2c(CC=C(C)C)cc(CC=C(C)C)cc2c1C[C@@H]1NC(=O)[C@H](C)NC1=O [Echinulin]
activity at 2 µg/mL ([1]; Plasmodium falciparum, 3D7, library screen at 2 μg/mL, 72 h, % growth, replicate 1, read-out: Pf_72h_%Growth_Rep1): 25.2% | activity at 2 µg/mL ([1]; Plasmodium falciparum, 3D7, library screen at 2 μg/mL, 72 h, % growth, replicate 2, read-out: Pf_72h_%Growth_Rep2): 35.1% | activity at 2 µg/mL ([2]; Plasmodium falciparum, 3D7, library screen at 2 μg/mL, 120 h, % growth, replicate 1, read-out: Pf_120h_%Growth_Rep1): 22.8% | activity at 2 µg/mL ([2]; Plasmodium falciparum, 3D7, library screen at 2 μg/mL, 120 h, % growth, replicate 2, read-out: Pf_120h_%Growth_Rep2): 39.3% | percent parasite growth at 2 µg/mL ([3]; library screen at 2 μg/mL, % growth, replicate 1, read-out: Tg_72h_%Growth_Rep1): 133% | percent parasite growth at 2 µg/mL ([3]; library screen at 2 μg/mL, % growth, replicate 2, read-out: Tg_72h_%Growth_Rep2): 104%
